The subject of this assay is Aβ42 levels in the extracellular medium. The assay can be described thus: FRET (HTRF) assay, Aβ42 level of the extracellular medium of SH-SY5Y-APP cells. It counts as cell-based. The settings on record: Homo sapiens, concentration at which reduction of Aβ42 level was half of the maximum reduction, read-out: Ab42 Potency. The protocol: Compounds were evaluated for activity in modulating Aβ42 and Aβ40 levels in the extracellular medium using a homogeneous time-resolved fluorescence (HTRF) assay as follows.
For the HTRF assay, either 5 or 10 μl of supernatant from treated cells was added to 10 or 15 μl of labeled antibody pairs, for a total volume of 20 μl, and incubated for 20-24 hours at 4° C. The labeled antibody pairs were either 8000 pg B436-XL665 and 400 pg B113 Europium, for assessing Aβ40 levels, or 8000 pg B436-XL665 and 400 pg A387 Europium, for assessing Aβ42 levels, diluted in 50 mM NaPO4, 0.2% BSA, 0.5M KF, pH 7. The fluorescence was read on a BMG Rubystar at 620 nm and 665 nm.
With `Clc1cccc(Nc2nc(-c3ccc(-n4ccnc4)cc3)cs2)c1` [Compound 152], the EC50 fell in the range of 10100 to 30000 nM.

On to `CN1CCN(c2ccc(Nc3nc(-c4ccc(-n5ccnc5)cc4)cs3)c(C(F)(F)F)c2)CC1` [Compound 215], for which the EC50 lay in the range of 1100 to 5000 nM.

In the case of `c1cc2c(cc1Nc1nc(-c3ccc4c(c3)OCO4)cs1)OCO2` [Compound 105], the EC50 lay in the range of 1100 to 5000 nM.

Consider `COc1ccc(-c2csc(Nc3ccc4c(c3)OCCO4)n2)c(OC)c1` [Compound 182], for which the EC50 lay within 10100 to 30000 nM.

For the molecule `COc1ccc(-c2csc(Nc3ccc(Br)cc3)n2)c(OC)c1` [Compound 129], the EC50 lay in the range of 200 to 1000 nM.

With `CN1CCN(c2ccc(-c3csc(Nc4ccc(Oc5ccccc5)cc4)n3)cc2)CC1` [Compound 142], the EC50 lay within 1100 to 5000 nM.

Regarding `CN1CCN(c2ccc(-c3csc(Nc4cccc5ccccc45)n3)cn2)CC1` [Compound 333], the EC50 lay within 200 to 1000 nM.

On to `COc1cc(C)c(Nc2nc(-c3ccc(-n4cnc(C)c4)nc3)cs2)cc1C(C)C` [Compound 296], for which the EC50 was less than 200 nM.

Take `COc1cc(C)c(Nc2nc(-c3ccc(-n4cnc(C)c4)cc3)cs2)cc1OC` [Compound 267]: the EC50 lay within 1100 to 5000 nM.

For `Oc1ccc(Nc2nc(-c3ccc(-c4ccccc4)cc3)cs2)cc1` [Compound 121], the EC50 is 5100 to 10000 nM.

As to `CCCN(CC)c1ccc(C)c(Nc2nc(-c3ccc(-n4cnc(C)c4)cc3)cs2)c1` [Compound 337], the EC50 was less than 200 nM.

`COc1ccc(C)c(Nc2nc(-c3ccc(-n4ccnc4)cc3)cs2)c1` [Compound 351]: the EC50 is less than 200 nM.

As to `CS(=O)(=O)c1ccc(-c2csc(Nc3c(Cl)cc(Cl)cc3Cl)n2)cc1` [Compound 214], the EC50 fell in the range of 10100 to 30000 nM.

Regarding `CC(C)N(c1ccccc1)c1ccc(Nc2nc(-c3ccncc3)cs2)cc1` [Compound 169], the EC50 lay in the range of 10100 to 30000 nM.

On to `COc1cc(Nc2nc(-c3ccc(O)c(O)c3)cs2)cc(OC)c1OC` [Compound 112], for which the EC50 is 10100 to 30000 nM.

In the case of `CN1CCN(c2ccc(-c3csc(Nc4ccc5c(c4)OCO5)n3)cn2)CC1` [Compound 328], the EC50 lay in the range of 200 to 1000 nM.

As to `Cc1cn(-c2ccc(-c3csc(Nc4cc(C(C)C)ccc4C)n3)cn2)cn1` [Compound 327], the EC50 is less than 200 nM.

In the case of `CN1CCN(c2ccc(-c3csc(Nc4ccc5c(cnn5C)c4)n3)cc2)CC1` [Compound 140], the EC50 fell in the range of 5100 to 10000 nM.

With `CCN(c1ccc(N2CCOCC2)cc1)c1nc(-c2ccc(-n3ccnc3)cc2)cs1` [Compound 180], the EC50 is 1100 to 5000 nM.

On to `Cc1cn(-c2ccc(-c3csc(Nc4cc(Cl)c(Cl)cc4Cl)n3)cc2)cn1` [Compound 237], for which the EC50 was 200 to 1000 nM.

Regarding `CCN(CC)c1ccc(Nc2nc(-c3ccc(-n4cc(C(C)=O)nn4)cc3)cs2)c(C)c1` [Compound 274], the EC50 fell in the range of 1100 to 5000 nM.

Turning to `Cc1cn(-c2ccc(-c3csc(Nc4cc(N5CCOCC5)ccc4C)n3)cn2)cn1` [Compound 276], the EC50 was less than 200 nM.

For the molecule `Cc1ccc(N(C)C)cc1Nc1nc(-c2ccc(-n3ccnc3)cc2)cs1` [Compound 259], the EC50 lay in the range of 200 to 1000 nM.

As for `Cc1cn(-c2ccc(-c3csc(Nc4cc(CO)ccc4C)n3)cc2)cn1` [Compound 299], the EC50 was in the range of 200 to 1000 nM.

With `CCCN(CC)c1ccc(C)c(Nc2nc(-c3ccc(-n4cnc(C)c4)nc3)cs2)c1` [Compound 284], the EC50 was less than 200 nM.

As to `c1cn(-c2ccc(-c3csc(Nc4ccc5[nH]cnc5c4)n3)cc2)cn1` [Compound 156], the EC50 was in the range of 1100 to 5000 nM.

For the molecule `CCN(CC)CCN(C)c1ccc(Nc2nc(-c3ccc(-n4ccnc4)cc3)cs2)c(C)c1` [Compound 210], the EC50 fell in the range of 1100 to 5000 nM.

`CN1CCN(c2ccc(-c3csc(Nc4ccc(N(C)C)cc4)n3)cc2)CC1` [Compound 117]: the EC50 lay in the range of 5100 to 10000 nM.

As to `CCN(CCO)c1ccc(Nc2nc(-c3ccc(-n4cnc(C)c4)cc3OC)cs2)c(C)c1` [Compound 207], the EC50 is 1100 to 5000 nM.

As for `CC(C)N1CCN(C(=O)c2ccc(Nc3nc(-c4ccc(N5CCN(C)CC5)cc4)cs3)cc2)CC1` [Compound 192], the EC50 was in the range of 5100 to 10000 nM.

Turning to `CCN(CC)c1ccc(-c2csc(Nc3ccc4[nH]cnc4c3)n2)cc1` [Compound 158], the EC50 fell in the range of 10100 to 30000 nM.

As for `CN1CCN(c2ccc(-c3csc(Nc4ccc(Cl)cc4)n3)cc2)CC1` [Compound 148], the EC50 lay within 200 to 1000 nM.

As for `CNCCN(C)c1ccc(C)c(Nc2nc(-c3ccc(-n4ccnc4)cc3)cs2)c1` [Compound 258], the EC50 lay in the range of 1100 to 5000 nM.

Turning to `Cc1cn(-c2ccc(-c3nc(Nc4cc(-n5cccc5)ccc4C)sc3C)cc2)cn1` [Compound 278], the EC50 lay within 200 to 1000 nM.

Regarding `CCc1cc(N2CCN(C)CC2)ccc1Nc1nc(-c2ccc(-n3ccnc3)cc2)cs1` [Compound 240], the EC50 was 1100 to 5000 nM.

As for `Cc1ccc(C)c(Nc2nc(-c3ccc(-n4cnc(Br)c4)cc3)cs2)c1` [Compound 316], the EC50 is less than 200 nM.

On to `CCN(CC)c1ccc(Nc2nc(-c3ccc(-n4cc(C(C)O)nn4)cc3)cs2)c(C)c1` (stereo not drawn) [Compound 275], for which the EC50 was in the range of 1100 to 5000 nM.

On to `CCN(CC)c1ccc(N(CC)c2nc(-c3ccc(-n4ccnc4)cc3)cs2)c(C)c1` [Compound 176], for which the EC50 was 5100 to 10000 nM.

Take `Cc1cn(-c2ccc(-c3csc(Nc4cc(CO)ccc4C)n3)cn2)cn1` [Compound 300]: the EC50 was in the range of 200 to 1000 nM.

As to `COc1ccc(C)c(Nc2nc(-c3ccc(-n4cnc(C)c4)cc3)cs2)c1` [Compound 352], the EC50 was less than 200 nM.

As to `CCN(CC)c1ccc(C)c(Nc2nc(-c3ccc(-n4cc(C)nn4)cc3)cs2)c1` [Compound 346], the EC50 was less than 200 nM.

Take `CCN(C)c1ccc(C)c(Nc2nc(-c3ccc(-n4cnc(C)c4)cc3)cs2)c1` [Compound 347]: the EC50 was less than 200 nM.

On to `CSc1cccc(Nc2nc(-c3ccc(-n4ccnc4)cc3)cs2)c1` [Compound 144], for which the EC50 lay in the range of 200 to 1000 nM.

Take `CCN(CC)c1cc(C)c(Nc2nc(-c3ccc(-n4cnc(C)c4)nc3)cs2)cc1C` [Compound 286]: the EC50 is less than 200 nM.

Turning to `CCN(CC)c1cc(Nc2nc(-c3ccc(-n4cnc(C)c4)cc3)cs2)c(C)cc1C` [Compound 288], the EC50 is less than 200 nM.

For the molecule `CCc1cc(N(CC)CC)ccc1Nc1nc(-c2ccc(-n3ccnc3)cc2)cs1` [Compound 241], the EC50 fell in the range of 1100 to 5000 nM.

Take `CCN(CC)c1cc(Nc2nc(-c3ccc(N4CCN(C)CC4)nc3)cs2)c(C)cc1C` [Compound 332]: the EC50 lay within 1100 to 5000 nM.

Take `COc1cc(Nc2nc(-c3ccc4c(c3)OCCO4)cs2)cc(OC)c1OC` [Compound 102]: the EC50 is 5100 to 10000 nM.

Take `Cc1cn(-c2ccc(-c3nc(Nc4cc(C)c(C)cc4C)sc3C)cc2Br)cn1` [Compound 243]: the EC50 lay within 1100 to 5000 nM.

As for `COc1ccc(-c2csc(Nc3cccc4[nH]ncc34)n2)c(OC)c1` [Compound 171], the EC50 lay in the range of 1100 to 5000 nM.

Regarding `N#Cc1ccc(-c2csc(Nc3cc(Cl)cc(Cl)c3)n2)cc1` [Compound 211], the EC50 lay within 10100 to 30000 nM.

For the molecule `COc1ccc(Nc2nc(-c3ccc(N4CCCC4)cc3)cs2)cc1OC` [Compound 113], the EC50 is 5100 to 10000 nM.

`CCN(CC)c1cc(Nc2nc(-c3ccc(-n4ccnc4)nc3)cs2)c(C)cc1C` [Compound 320]: the EC50 was less than 200 nM.

In the case of `CCN(CCO)c1ccc(Nc2nc(-c3ccc(-n4ccnc4)cc3)cs2)c(C)c1` [Compound 203], the EC50 lay within 1100 to 5000 nM.

Take `Cc1cccc(Nc2nc(-c3ccc(N4CCN(C)CC4)cc3)cs2)c1` [Compound 226]: the EC50 was in the range of 1100 to 5000 nM.

Consider `Cc1cn(-c2ccc(-c3csc(Nc4cc(C)c(O)cc4C)n3)cc2)cn1` [Compound 269], for which the EC50 fell in the range of 5100 to 10000 nM.

In the case of `Cc1ccc(Nc2nc(-c3ccc(Br)cc3)co2)c(C)c1` [Compound 344], the EC50 fell in the range of 1100 to 5000 nM.

`Cc1cn(-c2ccc(-c3csc(Nc4cc(N(C)CC5CC5)ccc4C)n3)cc2F)cn1` [Compound 315]: the EC50 was less than 200 nM.

On to `CCN(CCO)c1ccc(Nc2nc(-c3ccc(-n4cnc5ccccc54)cc3)cs2)c(C)c1` [Compound 228], for which the EC50 is 5100 to 10000 nM.

For `CCN(CC)c1ccc(C)c(Nc2nc(-c3cnc(-n4cnc(C)c4)nc3)cs2)c1` [Compound 341], the EC50 is less than 200 nM.

`c1ccc2cc(-c3csc(Nc4ccc5[nH]cnc5c4)n3)ccc2c1` [Compound 159]: the EC50 is 5100 to 10000 nM.

As for `COc1cc(C)c(Nc2nc(-c3ccc(-n4ccnc4)cc3)cs2)cc1C(C)C` [Compound 294], the EC50 was less than 200 nM.

Take `COc1ccc(Nc2nc(-c3ccc4c(c3)CCC(=O)N4)cs2)c(OC)c1` [Compound 120]: the EC50 is 10100 to 30000 nM.

As to `COc1ccc(-c2csc(Nc3ccc4c(c3)OCO4)n2)c(OC)c1` [Compound 104], the EC50 lay in the range of 1100 to 5000 nM.

Turning to `CCCCN(CC)c1ccc(C)c(Nc2nc(-c3ccc(-n4cnc(C)c4)nc3)cs2)c1` [Compound 317], the EC50 lay in the range of 200 to 1000 nM.

`CN1CCN(c2ccc(-c3csc(Nc4ccc5ccccc5c4)n3)cc2)CC1` [Compound 127]: the EC50 was 1100 to 5000 nM.

With `Cc1ccc(N2CCCCC2)cc1Nc1nc(-c2ccc(-n3ccnc3)cc2)cs1` [Compound 252], the EC50 was 1100 to 5000 nM.

For the molecule `FC(F)(F)c1cc(NCc2ccccn2)ccc1Nc1nc(-c2ccc(-n3ccnc3)cc2)cs1` [Compound 223], the EC50 was in the range of 5100 to 10000 nM.

In the case of `Cc1cn(-c2ccc(-c3csc(Nc4cc(N(C)CC5CC5)ccc4C)n3)cn2)cn1` [Compound 306], the EC50 is less than 200 nM.

With `Cc1cn(-c2ccc(-c3csc(Nc4cc(C)c(C)cc4C)n3)cc2)cn1` [Compound 235], the EC50 fell in the range of 200 to 1000 nM.

Take `Clc1ccc(Nc2nc(-c3ccc(-n4ccnc4)cc3)cs2)cc1Cl` [Compound 173]: the EC50 is 1100 to 5000 nM.

On to `c1nc2cc(Nc3nc(-c4ccc5c(c4)OCO5)cs3)ccc2[nH]1` [Compound 161], for which the EC50 was 5100 to 10000 nM.

(Values after patent US8017629B2, “Compounds and uses thereof in modulating amyloid β” (Neurogenetic Pharmaceuticals, Inc., priority 2003, dated 2011).)
